Among the data in patent US20250114345A1, “COMPOUNDS AND COMPOSITIONS AS CBP/P300 DEGRADERS AND USES THEREOF” (Oncopia Therapeutics, Inc. d/b/a/ SK Life Science Labs, priority 2023, published 2025) are Dmax and DC50 values, retold here.

The structures appear in SMILES notation.

The assay concerns the target T1, p300 (Homo sapiens, UniProt Q09472).
T1 construct: host or cells: A549 P300 HiBit cells
The experiment in a line: P300 degradation, HiBit technology in A549 P300 HiBit cells (2 h). Type of assay: cell-based. The settings on record: 2 hrs post treatment; for Dmax: A549, A549 P300 HiBit cells; for DC50: A549 P300 HiBit cells. As for the experimental part: p300 and CBP degradation potency and Dmax were determined using in cell western (ICW) assay technology in H1299 cells or HiBit technology in A549 HiBit cells.
A549 P300 HiBit and A549 CBP HiBit cells were plated in separate 384-well, TC treated, white-opaque, flat-bottomed microplate. Cells were plated at a cell density of 0.2×10^4 cells per well in assay media comprised of F-12K, 10% heat inactivated FBS, and 1% penicillin/streptomycin. Assay microplates containing HiBit cells were placed in a 37° C., 5% CO2, tissue culture incubator and left to equilibrate overnight. The next day cells were treated with serial dilutions of test compound made up of 10 mM stock solutions in DMSO. 384-Well plates containing treated cells were then placed back into a 37° C., 5% CO2, tissue culture incubator. Assay microplates containing A549 P300 HiBit cells were incubated for 2 hrs post treatment before P300 destruction was assessed, while microplates containing A549 CBP HiBit cells were incubated for 24 hrs post treatment before CBP destruction was determined. On the day of each assay time point, microplates were removed from the tissue culture incubator and prepared HiBit Lytic detection buffer (Promega, cat #N3O40) was added to each plate. Plates were covered with aluminum foil and incubated for ten minutes at room temperature on an orbital shaker. After incubation, luminescent signal of each plate was measured using the Envision instrument (Perkin Elmer).
On the technique in general: HiBiT is a short tag that completes a luciferase, so light tracks the accessible tagged protein.

T1 sequence (Q09472 whole entry): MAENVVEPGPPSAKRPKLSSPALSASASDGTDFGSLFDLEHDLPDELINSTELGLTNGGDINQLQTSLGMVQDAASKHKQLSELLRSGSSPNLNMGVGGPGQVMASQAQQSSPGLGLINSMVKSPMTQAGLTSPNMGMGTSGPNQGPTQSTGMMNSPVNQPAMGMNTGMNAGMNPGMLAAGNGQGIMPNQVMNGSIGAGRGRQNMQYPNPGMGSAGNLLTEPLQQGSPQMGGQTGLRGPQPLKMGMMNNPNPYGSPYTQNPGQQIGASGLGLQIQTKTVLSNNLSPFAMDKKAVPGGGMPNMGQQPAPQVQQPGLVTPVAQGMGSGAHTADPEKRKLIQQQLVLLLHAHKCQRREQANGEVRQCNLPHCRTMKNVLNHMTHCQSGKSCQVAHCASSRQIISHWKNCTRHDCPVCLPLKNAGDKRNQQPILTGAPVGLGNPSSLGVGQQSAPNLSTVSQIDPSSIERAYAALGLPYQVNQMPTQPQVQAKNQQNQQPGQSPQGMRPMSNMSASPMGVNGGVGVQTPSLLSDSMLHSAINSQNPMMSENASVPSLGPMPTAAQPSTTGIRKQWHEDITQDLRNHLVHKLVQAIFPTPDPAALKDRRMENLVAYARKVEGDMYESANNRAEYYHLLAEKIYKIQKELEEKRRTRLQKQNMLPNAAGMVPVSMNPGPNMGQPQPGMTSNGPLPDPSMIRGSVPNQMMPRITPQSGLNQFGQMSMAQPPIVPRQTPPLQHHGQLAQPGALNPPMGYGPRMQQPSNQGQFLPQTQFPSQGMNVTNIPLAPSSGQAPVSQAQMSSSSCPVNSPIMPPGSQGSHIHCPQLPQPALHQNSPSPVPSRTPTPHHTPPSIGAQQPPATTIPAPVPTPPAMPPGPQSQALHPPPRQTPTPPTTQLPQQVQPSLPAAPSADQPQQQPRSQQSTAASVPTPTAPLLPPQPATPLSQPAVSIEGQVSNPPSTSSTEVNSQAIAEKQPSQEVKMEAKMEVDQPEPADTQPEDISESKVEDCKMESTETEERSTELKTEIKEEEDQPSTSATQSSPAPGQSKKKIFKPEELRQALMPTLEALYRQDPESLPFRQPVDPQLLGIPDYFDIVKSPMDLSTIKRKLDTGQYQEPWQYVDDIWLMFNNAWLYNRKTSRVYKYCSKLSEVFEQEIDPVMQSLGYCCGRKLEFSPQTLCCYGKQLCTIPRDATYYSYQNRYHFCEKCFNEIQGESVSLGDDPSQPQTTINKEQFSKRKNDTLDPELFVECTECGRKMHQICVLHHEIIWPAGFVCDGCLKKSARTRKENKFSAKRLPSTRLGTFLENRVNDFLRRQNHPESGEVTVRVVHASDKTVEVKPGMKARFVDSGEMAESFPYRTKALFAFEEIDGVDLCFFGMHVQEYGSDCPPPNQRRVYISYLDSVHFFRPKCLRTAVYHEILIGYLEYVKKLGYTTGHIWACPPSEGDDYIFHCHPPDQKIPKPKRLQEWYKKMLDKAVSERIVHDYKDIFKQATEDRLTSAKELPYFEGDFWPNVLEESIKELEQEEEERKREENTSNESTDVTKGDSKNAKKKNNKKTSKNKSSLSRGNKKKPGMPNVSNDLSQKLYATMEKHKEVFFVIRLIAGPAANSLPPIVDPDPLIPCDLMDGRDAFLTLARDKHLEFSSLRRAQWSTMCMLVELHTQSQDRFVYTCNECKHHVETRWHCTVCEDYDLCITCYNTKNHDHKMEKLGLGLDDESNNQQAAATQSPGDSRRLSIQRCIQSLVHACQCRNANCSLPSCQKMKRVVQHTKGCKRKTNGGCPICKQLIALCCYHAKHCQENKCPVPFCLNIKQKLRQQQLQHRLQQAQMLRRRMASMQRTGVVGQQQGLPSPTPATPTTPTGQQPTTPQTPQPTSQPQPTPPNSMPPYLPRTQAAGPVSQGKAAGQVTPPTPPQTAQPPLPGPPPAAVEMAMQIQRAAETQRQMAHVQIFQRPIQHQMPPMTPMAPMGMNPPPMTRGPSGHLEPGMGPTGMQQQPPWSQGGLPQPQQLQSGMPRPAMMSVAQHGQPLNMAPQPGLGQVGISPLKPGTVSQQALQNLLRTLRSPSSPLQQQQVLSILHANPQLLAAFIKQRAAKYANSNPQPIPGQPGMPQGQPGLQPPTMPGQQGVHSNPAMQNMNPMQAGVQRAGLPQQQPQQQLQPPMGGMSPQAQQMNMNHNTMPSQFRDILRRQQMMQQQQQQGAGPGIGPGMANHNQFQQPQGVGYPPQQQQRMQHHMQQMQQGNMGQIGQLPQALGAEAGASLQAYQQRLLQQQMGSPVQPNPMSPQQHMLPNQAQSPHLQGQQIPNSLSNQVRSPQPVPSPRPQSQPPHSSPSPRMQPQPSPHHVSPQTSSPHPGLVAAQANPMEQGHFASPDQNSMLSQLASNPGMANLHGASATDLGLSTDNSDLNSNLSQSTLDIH

With `Cc1cc(-c2ccc(N(c3cc(C(C)C)c4c(c3)n(C)c(=O)n4C)C(F)(F)F)cn2)cnc1C(=O)NCC#Cc1cccc(NC2CCC(=O)NC2=O)c1` (centres unmarked) [Example A52, N-(3-(3-((2,6-dioxopiperidin-3-yl)amino)phenyl)prop-2-yn-1-yl)-5-((7-isopropyl-1,3-dimethyl-2-oxo-2,3-dihydro-1H-benzo [d]imidazol-5-yl) (trifluoromethyl)amino)-5′-methyl-[2,3′-bipyridine]-6′-carboxamide], the maximal degradation (Dmax) lay in the range of 60 to 79% and the DC50 was 100 to 999 nM.

For `Cc1cc(-c2cnc(N(C)c3cc(C(C)C)c4c(c3)n(C)c(=O)n4C)cn2)cnc1C(=O)NCC#Cc1cccc(NC2CCC(=O)NC2=O)c1` (centres unmarked) [Example A50, N-(3-(3-((2,6-dioxopiperidin-3-yl)amino)phenyl)prop-2-yn-1-yl)-5-(5-((7-isopropyl-1,3-dimethyl-2-oxo-2,3-dihydro-1H-benzo [d]imidazol-5-yl)(methyl)amino)pyrazin-2-yl)-3-methylpicolinamide], the Dmax was > 80% and the DC50 was in the range of 10 to 99 nM.

Consider `Cc1cc2c(N3CCCc4nc(-c5ccc(C(=O)NCC#Cc6ccc7occ(C8CCC(=O)NC8=O)c7c6)nc5)ncc43)nc(N3CCC3)cc2n(C)c1=O` (centres unmarked) [Example B86, 5-(5-(7-(azetidin-1-yl)-1,3-dimethyl-2-oxo-1,2-dihydro-1,6-naphthyridin-5-yl)-5,6,7,8-tetrahydropyrido[3,2-d]pyrimidin-2-yl)-N-(3-(3-(2,6-dioxopiperidin-3-yl)benzofuran-5-yl)prop-2-yn-1-yl)picolinamide], for which the maximal degradation (Dmax) is > 80% and the half-maximal degradation concentration (DC50) lay in the range of 1 to 9.9 nM.

As for `CC(C)c1cc(N2CCCc3cc(-c4ccc(C(=O)NCC#Cc5ccc6occ(C7CCC(=O)NC7=O)c6c5)nc4)c(C(F)F)cc32)cc2c1n(C)c(=O)n2C` (centres unmarked) [Example A151, 5-(7-(difluoromethyl)-1-(7-isopropyl-1,3-dimethyl-2-oxo-2,3-dihydro-1H-benzo[d]imidazol-5-yl)-1,2,3,4-tetrahydroquinolin-6-yl)-N-(3-(3-(2,6-dioxopiperidin-3-yl)benzofuran-5-yl)prop-2-yn-1-yl)picolinamide], the Dmax is > 80% and the 50% degradation concentration (DC50) was 1 to 9.9 nM.

Consider `Cc1cc(-c2ncc(N(C)c3cc(C4CCOCC4)cc4c3cc(C)c(=O)n4C)nn2)cnc1C(=O)NCC#Cc1ccc2occ(C3CCC(=O)NC3=O)c2c1` (centres unmarked) [Example B135, 5-(6-((1,3-dimethyl-2-oxo-7-(tetrahydro-2H-pyran-4-yl)-1,2-dihydroquinolin-5-yl) (methyl)amino)-1,2,4-triazin-3-yl)-N-(3-(3-(2,6-dioxopiperidin-3-yl)benzofuran-5-yl)prop-2-yn-1-yl)-3-methylpicolinamide], for which the maximal degradation (Dmax) is < 20% and the DC50 was > 1000 nM.

With `CC(C)c1cc(-c2cccc3cc(-c4ccc(C(=O)NCC#Cc5cnc6c(c5)N(C5CCC(=O)NC5=O)CC6)nc4)ncc23)cc2c1n(C)c(=O)n2C` (centres unmarked) [Example A249, N-(3-(1-(2,6-dioxo-piperidin-3-yl)-2,3-dihydro-1H-pyrrolo [3,2-b]pyridin-6-yl)prop-2-yn-1-yl)-5-(8-(7-isopropyl-1,3-dimethyl-2-oxo-2,3-dihydro-1H-benzo[d]imidazol-5-yl)isoquinolin-3-yl)picolinamide], the Dmax lay within 20 to 39% and the 50% degradation concentration (DC50) lay in the range of 10 to 99 nM.

Turning to `CC(C)c1cc(-c2cccc3cc(-c4ccc(C(=O)NCC#Cc5ccc6c(C#N)cn(C7CCC(=O)NC7=O)c6c5)nc4)ncc23)cc2c1n(C)c(=O)n2C` (centres unmarked) [Example A19, N-(3-(3-Cyano-1-(2,6-dioxopiperidin-3-yl)-1H-indol-6-yl)prop-2-yn-1-yl)-5-(8-(7-isopropyl-1,3-dimethyl-2-oxo-2,3-dihydro-1H-benzo[d]imidazol-5-yl)isoquinolin-3-yl)picolinamide], the Dmax fell in the range of 60 to 79% and the DC50 is 100 to 999 nM.

On to `Cc1cc2c(N3CCCc4nc(-c5ccc(C(=O)NCC#Cc6cc7c(C89CC(C8)C(=O)NC9=O)cccc7o6)nc5)ncc43)cc(C3CCOCC3)cc2n(C)c1=O` [Example B97, 5-(5-(1,3-dimethyl-2-oxo-7-(tetrahydro-2H-pyran-4-yl)-1,2-dihydroquinolin-5-yl)-5,6,7,8-tetrahydropyrido[3,2-d]pyrimidin-2-yl)-N-(3-(4-(2,4-dioxo-3-azabicyclo[3.1.1]heptan-1-yl)benzofuran-2-yl)prop-2-yn-1-yl)picolinamide], for which the maximal degradation (Dmax) was < 20% and the DC50 was 100 to 999 nM.

In the case of `Cn1c(=O)n(C)c2c(C3CCOCC3)nc(-c3cccc4cc(-c5ccc(C(=O)NCC#Cc6ccc7occ(C8CCC(=O)NC8=O)c7c6)nc5)ncc34)cc21` (centres unmarked) [Example A135, 5-(8-(1,3-dimethyl-2-oxo-4-(tetrahydro-2H-pyran-4-yl)-2,3-dihydro-1H-imidazo[4,5-c]pyridin-6-yl)isoquinolin-3-yl)-N-(3-(3-(2,6-dioxopiperidin-3-yl)benzofuran-5-yl)prop-2-yn-1-yl)picolinamide], the greatest degradation seen (Dmax) is > 80% and the DC50 is 1 to 9.9 nM.

On to `Cc1cc(-c2ncc(N(C)c3cc(C(C)C)c4c(c3)n(C)c(=O)n4C)cn2)cnc1C(=O)NCC#Cc1cc2c(C3CCC(=O)NC3=O)coc2cc1F` (centres unmarked) [Example A235, N-(3-(3-(2,6-dioxo-piperidin-3-yl)-6-fluorobenzofuran-5-yl)prop-2-yn-1-yl)-5-(5-((7-isopropyl-1,3-dimethyl-2-oxo-2,3-dihydro-1H-benzo [d]imidazol-5-yl)(methyl)amino)pyrimidin-2-yl)-3-methylpicolinamide], for which the greatest degradation seen (Dmax) is > 80% and the 50% degradation concentration (DC50) fell in the range of 1 to 9.9 nM.

For `CC(C)c1cc(-c2cccc3cc(-c4ccc(C(=O)NCC#Cc5cc6c(ccn6C6CCC(=O)NC6=O)cn5)nc4)ncc23)cc2c1n(C)c(=O)n2C` (centres unmarked) [Example A22, N-(3-(1-(2,6-Dioxopiperidin-3-yl)-1H-pyrrolo[3,2-c]pyridin-6-yl)prop-2-yn-1-yl)-5-(8-(7-isopropyl-1,3-dimethyl-2-oxo-2,3-dihydro-1H-benzo[d]imidazol-5-yl)isoquinolin-3-yl)picolinamide], the greatest degradation seen (Dmax) was 20 to 39% and the DC50 is 10 to 99 nM.

`Cc1cc(-c2cc(F)c(Nc3cc(C4CCOCC4)c4c(c3)n(C)c(=O)n4C)cc2C(F)F)cnc1C(=O)NCC#Cc1cc2c(C3CCC(=O)NC3=O)cccc2o1` (centres unmarked) [Example A257, 5-(2-(difluoromethyl)-4-((1,3-dimethyl-2-oxo-7-(tetrahydro-2H-pyran-4-yl)-2,3-dihydro-1H-benzo [d]imidazol-5-yl)amino)-5-fluoro-phenyl)-N-(3-(4-(2,6-dioxopiperidin-3-yl)benzofuran-2-yl)prop-2-yn-1-yl)-3-methylpicolinamide] had a Dmax of 60 to 79% and a DC50 of 1 to 9.9 nM.

Regarding `Cc1cc(-c2ncc(N(C)c3cc(C4CCOCC4)c4c(c3)n(C)c(=O)n4C)s2)cnc1C(=O)NCC#Cc1ccc2occ(C3CCC(=O)NC3=O)c2c1` (centres unmarked) [Example A149, 5-(5-((1,3-dimethyl-2-oxo-7-(tetrahydro-2H-pyran-4-yl)-2,3-dihydro-1H-benzo[d]imidazol-5-yl)(methyl)amino)thiazol-2-yl)-N-(3-(3-(2,6-dioxopiperidin-3-yl)benzofuran-5-yl)prop-2-yn-1-yl)-3-methylpicolinamide], the maximal degradation (Dmax) was < 20% and the DC50 was > 1000 nM.

The term Dmax denotes the largest share of the target that was removed. Read a low Dmax as a partial loss of target. By DC50 is commonly meant the concentration giving 50% degradation.
